Laboratory results reported in US4988497A, “Process for the optical determination of lipase” (Boehringer Mannheim GmbH, priority 1985, dated 1991).

Experiments:
lipase (EC 3.1.1.3) [1] = test: lipase sensitivity; assay type: biochemical; settings: for lipase sensitivity (activity 100 U/l): 100 μl lipase about 100 U/l, 578 nm
Description: (§1) 1.2 g. Sodium desoxycholate and 0.15 mg. colipase (from the pig) are dissolved in 60 ml. distilled water, with stirring. A solution of 70 mg. of the lipase substrate 1,2-0-dioctyl-rac-glycero-3-azelaic acid resorufin ester (Example 4) in 1.7 ml. n-propanol are injected herein under pressure in the thinnest possible stream, with vigorous stirring. A solution which, in 200 ml. distilled water, contains 1.5 g. urea, 1 g. sodium desoxycholate, 200 mg. sodium chloride, 800 mg. TRIS and 107 mg. TRIS.HCl, is well mixed with the above-produced emulsion.
(§2) 2.5 ml. of the so produced solution are mixed with 100 μ. of sample (serum). The reaction is monitored photometrically at 578 nm Hg.
For the determination of the lipase sensitivity, instead of the sample there were added 100 μl. lipase (EC 3.1.1.3; about 100 U/1., Boehringer Mannheim GmbH, Order No. 41 45 90) and the extinction change monitored as described above.

[2] = tested on: carboxyl esterase (EC 3.1.1.1); test: esterase sensitivity; assay type: biochemical; settings: for Esterase sensitivity: emulsion prepared as in Example 22; for esterase sensitivity (activity 20,000 U/l): 100 μl carboxyl esterase about 20,000 U/l, 578 nm
Description: as §1, §2
For the determination of the esterase sensitivity, instead of the sample there were added 100 μl. carboxyl esterase (EC 3.1.1.1; about 20,000 U/1. Boehringer Mannheim GmbH, Order No. 10 46 98) and the extinction change monitored as described above.

[3] = blank change (water instead of sample); assay type: physicochemical
[4] = blank change (water instead of sample); assay type: physicochemical; settings: 100 μl water instead of sample; extinction change at 578 nm
Description: as §1, §2
The blank change was determined with a reagent according to Example 1 and various lipase substrates. Instead of the sample, 100 μ1. water were added and the extinction change monitored photometrically at 578 nm (ΔmE/min.).

lipase (EC 3.1.1.3) [5] = test: lipase sensitivity; assay type: biochemical
[6] = emulsion prepared as in Example 22
[7] = taurodesoxycholate/TRIS reagent pH 7.5, 578 nm
[8] = fluorometric, 25° C., excitation 364 nm, emission 448 nm

Row | blank [4] | esterase sensitivity (activity 20,000 U/l) [2] | lipase sensitivity (activity 100 U/l) (lipase (EC 3.1.1.3) [1]) | further results | Structure (SMILES)
1 |  |  |  | Lipase sensitivity (lipase (EC 3.1.1.3) [1]; [6]): 8.7 mE/min per 100 U/1 | CCCCCCCCCCCCOCC(COC(=O)CCC(=O)Oc1ccc2nc3ccc(=O)cc-3oc2c1)OCCCCCCCCCCCC (racemic) [Example 34, 1,2-0-Dilauryl-rac-glycero-3-succinic acid resorufin ester]
2 |  |  |  | Esterase sensitivity [2]: 3.4 mE/min; blank [3, 6]: 3 mE/min; Lipase sensivity (lipase (EC 3.1.1.3) [1]; emulsion prepared as in Example 22, no lipase activity printed): 24 mE/min | CCCCCCCCCCCCSCC(COC(=O)CCCC(=O)Oc1ccc2nc3ccc(=O)cc-3oc2c1C)SCCCCCCCCCCCC (racemic) [Example 37, 1,2-S-Dilauryl-rac-1,2-dithioglycero-3-glutaric acid (6-methylresorufin) ester]
3 | 1.3-2.0 ΔmE/min | 48.7 ΔmE/min | 9.8 ΔmE/min |  | CCCCCCCCCCOCC(COC(=O)CCCCCC(=O)Oc1ccc2nc3ccc(=O)cc-3oc2c1)OCCCCCCCCCC (racemic) [Example 20, 1,2-0-Didecyl-rac-glycero-3-pimelic acid resorufin ester]
4 | 2.4-3.0 ΔmE/min | 30.2 ΔmE/min | 22.18 ΔmE/min |  | CCCCCCCCCCOCC(COC(=O)CCCC(=O)Oc1ccc2nc3ccc(=O)cc-3oc2c1)OCCCCCCCCCC (racemic) [Example 5, 1,2-O-Didecyl-rac-glycero-3-glutaric acid resorufin ester]
5 | 13.2 ΔmE/min | > 1000 ΔmE/min |  |  | CCCCCCOCC(COC(=O)CCCC(=O)Oc1ccc2nc3ccc(=O)cc-3oc2c1)OCCCCCC (racemic) [Example 1, 1,2-O-Dihexyl-rac-glycero-3-glutaric acid resorufin ester]
6 |  |  |  | Esterase sensitivity [2]: 25.3 mE/min; blank [3, 6]: 8.4 mE/min; Lipase sensitivity (lipase (EC 3.1.1.3) [1]; [6]): 19.0 mE/min per 100 U/1 | CCCCCCCCCCCCCCCCC(COCC(COC(=O)CCCC(=O)Oc1ccc2nc3ccc(=O)cc-3oc2c1C)OC)OC (racemic) [Example 33, 1-0-(2-Methoxy-octadecyl)-2-0-methyl-rac-glycero-3-glutaric acid-(6-methylresorufin) ester]
7 | 9.8-11.9 ΔmE/min | 9.5 ΔmE/min | 13.2 ΔmE/min |  | CCCCCCCCCCCCOCC(COC(=O)CCCCCCCC(=O)Oc1ccc2nc3ccc(=O)cc-3oc2c1)OCCCCCCCCCCCC (racemic) [Example 21, 1,2-0-Dilauryl-rac-glycero-3-azelaic acid resorufin ester]
8 | 0.4-0.8 ΔmE/min | 33.6 ΔmE/min | 18.04 ΔmE/min |  | CCCCCCCCOCC(COC(=O)CCCCCCCC(=O)Oc1ccc2nc3ccc(=O)cc-3oc2c1)OCCCCCCCC (racemic) [Example 4, 1,2-O-dioctyl-rac-glycero-3-azelaic acid resorufin ester]
9 | 7.0 ΔmE/min | 144.0 ΔmE/min | ~ 100 ΔmE/min |  | CCCCCCCCOCC(COC(=O)CCCC(=O)Oc1ccc2nc3ccc(=O)cc-3oc2c1)OCCCCCCCC (racemic) [Example 2, 1,2-O-Dioctyl-rac-glycero-3-glutaric acid resorufin ester]
10 |  |  |  | Lipase sensitivity (lipase (EC 3.1.1.3) [5]; CHES reagent pH 8.3, 405 nm): 12.2 mE/min per 100 U/1; blank ([3]; CHES reagent pH 8.3, 405 nm): 0.3 mE/min | CCCCCCCCCCCCOCC(COC(=O)CCCC(=O)Sc1ccc([N+](=O)[O-])cc1)OCCCCCCCCCCCC (racemic) [Example 32, 1,2-0-Dilauryl-rac-glycero-3-qlutaric acid-(p-nitrothiophenyl)-ester]
11 | 0.1 ΔmE/min | 1.8 ΔmE/min | 0.97 ΔmE/min |  | CCCCCCCCCCCCCCCCOC[C@H](COC(=O)CCCC(=O)Oc1ccc2nc3ccc(=O)cc-3oc2c1)OCCCCCCCCCCCCCCCC [Example 11, 1,2-O-Dihexadecyl-sn-glycero-3-glutaric acid resorufin ester]
12 |  |  |  | Esterase sensitivity [2]: 0.7 mE/min; blank [3, 6]: 0.2 mE/min; Lipase sensitivity (lipase (EC 3.1.1.3) [1]; [6]): 23.6 mE/min per 100 U/1 | CCCCCCCCCCCCOCC(COC(=O)CCCCCCCCCCCCC(=O)Oc1ccc2nc3ccc(=O)cc-3oc2c1C)OCCCCCCCCCCCC (racemic) [Example 28, 1,2-0-Dilauryl-rac-glycero-3-tetradecandiacid (6-methylresorufin) ester]
13 | 3.9-4.1 ΔmE/min | 112.5 ΔmE/min | 12.28 ΔmE/min |  | CCCCCCCCOCC(COC(=O)CCCCCC(=O)Oc1ccc2nc3ccc(=O)cc-3oc2c1)OCCCCCCCC (racemic) [Example 3, 1,2-O-dioctyl-rac-glycero-3-pimelic acid resorufin ester]
14 |  |  |  | Esterase sensitivity [2]: 1.3 mE/min; Lipase sensitivity (lipase (EC 3.1.1.3) [1]; [6]): 4.1 mE/min per 100 U/1 | CCCCCCCCCCCCOCC(CSC(=O)CCCC(=O)Oc1ccc2nc3ccc(=O)cc-3oc2c1C)OCCCCCCCCCCCC (racemic) [Example 36, 1,2-0-Dilauryl-rac-3-thioglycero-3-S-glutaric acid (6-methylresorufin) ester]
15 | 2.0-2.8 ΔmE/min | 23.6 ΔmE/min | 6.96 ΔmE/min |  | CCCCCCCCCCCOCC(COC(=O)CCCC(=O)Oc1ccc2nc3ccc(=O)cc-3oc2c1)OCCCCCCCCCCC (racemic) [Example 6, 1,2-O-Diundecyl-rac-glycero-3-glutaric acid resorufin ester]
16 | 2.4-3.0 ΔmE/min | 34.8 ΔmE/min | 10.9 ΔmE/min |  | CCCCCCCCCCCCOCC(COC(=O)CCCC(=O)Oc1ccc2nc3ccc(=O)cc-3oc2c1)OCCCCCCCCCCCC (racemic) [Example 7, 1,2-O-Dilauryl-rac-glycero-3-glutaric acid resorufin ester]
17 | 2.1-2.4 ΔmE/min | 27.8 ΔmE/min | 4.68 ΔmE/min |  | CCCCCCCCCCCCOCC(COC(=O)CCCCCC(=O)Oc1ccc2nc3ccc(=O)cc-3oc2c1)OCCCCCCCCCCCC (racemic) [Example 8, 1,2-O-Dilauryl-rac-glycero-3-pimelic acid resorufin ester]
18 |  |  |  | Lipase sensitivity (lipase (EC 3.1.1.3) [5]; [7]): 28 mE/min per 100 U/l; blank [3, 7]: 0.4 mE/min | CCCCCCCCCCCCOCC(COC(=O)CCCC(=O)Oc1ccc2nc3ccc(=O)cc-3oc2c1C)OCCCCCCCCCCCC (racemic) [Example 29, 1,2-0-Dilauryl-rac-qlycero-3-glutaric-acid (6-methyl-resorufin)-ester]
19 |  |  |  | Esterase sensitivity [2]: 1.0 mE/min; Lipase sensitivity (lipase (EC 3.1.1.3) [1]; [6]): 25.5 mE/min per 100 U/1 | CCCCCCCCCCCCCCCCC(COC(=O)CCCC(=O)Oc1ccc2nc3ccc(=O)cc-3oc2c1C)OCCCCCCCCCCCC (stereo not shown) [Example 35]
20 |  |  |  | Lipase sensitivity (lipase (EC 3.1.1.3) [5]; [8]): 28 mE/min per 100 U/1; blank [3, 8]: 0.4 mE/min | CCCCCCCCCCCCOCC(COC(=O)CCCC(=O)Oc1ccc2c(C)cc(=O)oc2c1)OCCCCCCCCCCCC (racemic) [Example 31, 1,2-0-Dilauryl-rac-glycero-3-glutaric acid-(4-methylumbelliferyl)-ester]
